Results reported in patent US20220380371A1, “MLL1 INHIBITORS AND ANTI-CANCER AGENTS” (NOVARTIS AG, priority 2019, published 2022).
Where two headings read alike, the source gives them in different places.

Columns and labels:
[1] = biological target: wild type MLL1 four-member complex (MLL1-4C) (Homo sapiens, UniProt Q03164); assay: MLL1 LC-MS Assay; type: biochemical
Description: The compounds of the present disclosure were serially and separately diluted 3-fold in DMSO to obtain a total of eight or twelve concentrations. Then the test compounds at each concentration (120 nL of each) were transferred by Mosquito into white Proxiplate plus 384-well microplate (PerkinElmer). Solutions (6 μL) of 60 nM wild type MLL1 four-member complex (MLL1-4C) and 5 μM SAM in the reaction buffer (20 mM Tris-HCl, pH 8.0, 0.01% Tween 20, 1 mM DTT, 10 mM MgCl2, 0.01% BSA) were added to the wells that were then incubated with the test compound for 20 min. A 6 μL solution of 20 μM of the peptide substrate H3K4me0 (histone H3[1-21]-Biotin) in the reaction buffer was added to initiate each reaction. The final components in the reaction solution include 30 nM MLL1-4C, 2.5 μM SAM, and 10 μM H3K4me0 with varying concentration of the compounds. A positive control consisted of 30 nM MLL1-4C, 2.5 μM SAM, and 10 μM substrate in the absence of the test compound, and a negative control consisted of 2.5 μM SAM, and 10 μM substrate only. Each reaction was incubated at rt for 120 min, then stopped by addition of 3 μL per of quench solution (2.5% TFA with 320 nM d4-SAH). The reaction mixture was centrifuged (Eppendorf centrifuge 5810, Rotor A-4-62) for 2 min at 2000 rpm. The SAH production from the enzymatic assays were monitored by LC-MS/MS on an API 4000 triple quadrupole mass spec with Turbolon Spray (Applied Biosystem) coupled with Prominenece UFLC (Shimazu). The level of SAH production were then normalized based on the values coming from the positive and negative controls to give percent enzyme activities. The data were then fit to a dose response equation using the program Helios (Novartis) to get the IC50 values of the test compounds.

H3K4me3 in MV4-11 cells = assay: MV4-11 H3K4me3 Cellular ELISA Assay; type: cell-based; details: Homo sapiens, MV4-11, 48 h
Description: MV4-11 H3K4me3 Cellular ELISA Assay
MV4-11 (ATCC® CRL-9591™) was cultured with RPMI1640 medium (Thermo Fisher Scientific, cat #11875) supplemented with 10% FBS (Thermo Fisher Scientific, cat #10099141) and 50 U/ml Penicillin-Streptomycin (Thermo Fisher Scientific, cat #10378016) in humidified incubator at 37° C., 5% CO2.
200 nL compounds dissolved in DMSO were serially diluted at 1:3 ratio for 12 points starting from 10 mM and dispensed into each wells of cell culture plates (PDL-coated ViewPlate-384 Black, FTC, PerkinElmer, #6007710). 3,750 MV4-11 cells in 40 μL culture medium were seeded into each well and treated with desired concentration for 48 hours. After treatment, wash cells with cold phosphate based buffer (PBS, pH 7.4) and aspirate the remaining PBS buffer. Crude histone lysate was extracted by 40 μL 0.5M HCl for 1 hour in 4° C. following neutralization by adding 32 μL neutralization buffer (0.5M Sodium phosphate dibasic, pH ˜12.5, 1.25 mM Dithiothreitol, Promega #V3151, Protease Inhibitor Cocktail, Sigma #8340) for each well. 5 μL and 20 μL of histone lysate was loaded to ELISA plate (384 Well Plates, PE HB, White, 6005620) for detection of total H3 and H3K4me3, respectively. Shake the plates gently in 4° C. for overnight. After histone binding, plates were washed with 80 μL PBS/T (PBS with 0.05% Tween-20) and blocked with 50 μL 3% BSA diluted in PBS/T per well for 1 hour. Incubate wells with primary antibody for 1 hour at room temperature using anti-H3K4me3 (CST #9727) and anti-total H3 (CST #9715) diluted 1:2000 in 3% BSA. Plates were then washed with PBS/T for 3 times and incubated with horseradish peroxidase (HRP) conjugated secondary antibody (CST #7074, 1:5000) for 1 hour at room temperature. The abundance of H3K4me3 and total H3 were measured by ECL substrates chemiluminescence (Pierce, #34080) on a plate reader (PerkinElmer EnVison 2104 Mutilable Reader). Percentage inhibition was calculated against DMSO control after normalization of H3K4me3 signal to H3 signal for individual samples. The data were then fit to a dose response curve using GraphPad Prism for IC50 calculation.

MV4-11 cells = assay: MV4-11 6-Day Cell Growth CTG (CellTiter-Glo) Assay; type: cell-based; details: Homo sapiens, MV4-11, 144 h, MV4-11 cell growth CellTiter-Glo, 6 days
Description: MV4-11 6-Day Cell Growth CTG (CellTiter-Glo) Assay
Acute myeloid leukemia cell MV4-11 (ATCC® CRL-9591™) was cultured with RPMI 1640 medium (Thermo Fisher Scientific, cat #11875) supplemented with 10% FBS (Thermo Fisher Scientific, cat #10099141) in humidified incubator at 37° C., 5% CO2. To assess the effect of MLL1 inhibition on cell growth, the compound of the present invention was dissolved in DMSO and serially diluted at 1:3 for 12 points starting from 10 mM then 200 nL for the replicate of each dose per well was dispensed to Viewplate-384 Black (Perkin Elmer). Exponentially growing MV4-11 cells were seeded at the density of 300 cells per well in 40 μL to the plate, so the final compound working concentration starts from 50 μM. After 6 days, 40 μL CellTiter-Glo (Promega, cat #G7573) was added into the cell culture well and luminescence was read with Envision (Perkin Elmer) to determine the viable cells. The percentage inhibition was calculated against the samples treated with DMSO only and the data were used for dose response curve fitting in GraphPad Prism to get the IC50 of representative compound of present invention, which reflects the inhibition of MLL1 activity.

Row | IC50 ([1]; read-out: LCMS) [nM] | IC50 (H3K4me3 in MV4-11 cells) [nM] | IC50 (MV4-11 cells) [nM] | IC50 ([1]; read-out: MLL1 LCMS) [nM] | SMILES
1 | 50 to 100 | < 1900 | < 2000 |  | C#Cc1c(F)ccc(N2CC[C@](N)(C(=O)NC3CC3)C2)c1Cn1cnc2c(N)ncnc21 [Example 5]
2 |  | < 1900 | 2000 to 3000 | 50 to 100 | COCc1c(Cl)cc(Cl)c(N2CC[C@](N)(C(=O)NC3CC3)C2)c1Cn1cnc2c(N)ncnc21 [Example 162]
3 |  | < 1900 | < 2000 | 50 to 100 | Nc1ncnc2c1ncn2Cc1c(N2CCC(N)(C(=O)NC3CC3)C2)ccc(C(F)(F)F)c1Cl (stereo not drawn) [Example 160]
4 | < 50 | < 1900 | < 2000 |  | CCc1cc(-c2cccnc2)cc(N2CC[C@](N)(C(=O)NC3CC3)C2)c1Cn1cnc2c(N)ncnc21 [Example 95]
5 | 50 to 100 | < 1900 | < 2000 |  | [2H]C([2H])([2H])OCc1c(F)ccc(N2CC[C@](N)(C(=O)NC3CC3)C2)c1Cn1cnc2c(N)ncnc21 [Example 80]
6 | 50 to 100 | < 1900 | < 2000 |  | Nc1ncnc2c1ncn2Cc1c(N2CC[C@](N)(C(=O)NC3CC3)C2)ccc(F)c1CN1CCCC(F)(F)C1 [Example 69]
7 | > 100 | < 1900 | < 2000 |  | C=Cc1c(F)ccc(N2CCC(N)(C(=O)NC3CC3)C2)c1Cn1cnc2c(N)ncnc21 (stereo not drawn) [Example 9]
8 |  | < 1900 | < 2000 | < 50 | C=Cc1c(Cl)ccc(N2CC[C@](N)(C(=O)NC3CC3)C2)c1Cn1cnc2c(N)ncnc21 [Example 163]
9 | 50 to 100 | < 1900 | < 2000 |  | Nc1ncnc2c1ncn2Cc1c(N2CC[C@](N)(C(=O)NC3CC3)C2)ccc(F)c1CN1CC(F)C1 [Example 53]
10 |  | < 1900 | < 2000 | < 50 | Nc1ncnc2c1ncn2Cc1c(N2CC[C@](N)(C(=O)NC3CC3)C2)ccc(F)c1C1CCCC1 [Example 158]
11 | 50 to 100 | < 1900 | < 2000 |  | Nc1ncnc2c1ncn2Cc1c(N2CC[C@](N)(C(=O)NC3CC3)C2)ccc(F)c1CN1CCC(F)(F)CC1 [Example 55]
12 | < 50 | < 1900 | < 2000 |  | Nc1ncnc2c1ncn2Cc1c(N2CC[C@](N)(C(=O)NC3CC3)C2)ccc(F)c1CN1CCC(F)(F)C1 [Example 66]
13 | 50 to 100 | < 1900 | < 2000 |  | Nc1ncnc2c1ncn2Cc1c(N2CC[C@](N)(C(=O)NC3CC3)C2)ccc(F)c1CNCC(F)(F)F [Example 57]
14 | 50 to 100 | 1900 to 3000 | 2000 to 3000 |  | Nc1ncnc2c1ncn2Cc1c(N2CC[C@](N)(c3ccccc3)C2)ccc(F)c1C(F)(F)F [Example 26]
15 | < 50 | < 1900 | < 2000 |  | N#Cc1c(Cl)ccc(N2CC[C@](N)(C(=O)NC3CC3)C2)c1Cn1cnc2c(N)ncnc21 [Example 104]
16 | < 50 | < 1900 | < 2000 |  | Nc1ncnc2c1ncn2Cc1c(Br)cc(Cl)cc1N1CC[C@](N)(c2nnn[nH]2)C1 [Example 83, (R)-9-(2-(3-amino-3-(1H-tetrazol-5-yl)pyrrolidin-1-yl)-6-bromo-4-chlorobenzyl)-9H-purin-6-amine]
17 | 50 to 100 | 1900 to 3000 | > 3000 |  | Nc1ncnc2c1ncn2Cc1c([C@@H](O)C(F)(F)F)cc(Cl)cc1N1CC[C@](N)(C(=O)NC2CC2)C1 [Example 33, (R)-3-amino-1-(2-((6-amino-9H-purin-9-yl)methyl)-5-chloro-3-((R)-2,2,2-trifluoro-1-hydroxyethyl)phenyl)-N-cyclopropylpyrrolidine-3-carboxamide]
18 | < 50 | > 3000 | < 2000 |  | Nc1ncnc2c1ncn2Cc1c(N2CC[C@](N)(C(=O)NC3CC3)C2)ccc(Cl)c1C1CC1 (stereo in doubt) [Example 97]
19 |  | < 1900 | < 2000 | 50 to 100 | Nc1ncnc2c1ncn2Cc1c(Cl)cccc1N1CCC(N)(C(=O)NC2CC2)C1 (stereo not drawn) [Example 164]
20 | 50 to 100 | < 1900 | < 2000 |  | Nc1ncnc2c1ncn2Cc1c(N2CC[C@](N)(C(=O)NC3CC3)C2)ccc(F)c1C1CC1 [Example 8]
21 | 50 to 100 | < 1900 | < 2000 |  | COC[C@@]1(N)CCN(c2ccc3ccccc3c2Cn2cnc3c(N)ncnc32)C1 [Example 109]
22 | > 100 | < 1900 | < 2000 |  | CCc1c(Cl)cc(Cl)c(N2CC[C@](N)(C(=O)N3CCS(=O)(=O)CC3)C2)c1Cn1cnc2c(N)ncnc21 [Example 73]
23 |  | < 1900 | < 2000 | 50 to 100 | CCc1cccc(N2CC[C@](N)(C(=O)NC3CCCC3)C2)c1Cn1cnc2c(N)ncnc21 [Example 169]
24 | < 50 | < 1900 | < 2000 |  | COCc1c(Cl)ccc(N2CC[C@](N)(C(=O)NC3CC3)C2)c1Cn1cnc2c(N)ncnc21 [Example 78]
25 |  | < 1900 | 2000 to 3000 | < 50 | [2H]C([2H])([2H])C([2H])([2H])NC(=O)[C@@]1(N)CCN(c2cc(Cl)cc(Br)c2Cn2cnc3c(N)ncnc32)C1 [Example 159]
26 | < 50 | < 1900 | < 2000 |  | Nc1ncnc2c1ncn2Cc1c(N2CC[C@](N)(C(=O)NC3CC3)C2)ccc(C(F)(F)F)c1Br [Example 41, (R)-3-amino-1-(2-((6-amino-9H-purin-9-yl)methyl)-3-bromo-4-(trifluoromethyl)phenyl)-N-cyclopropylpyrrolidine-3-carboxamide]
27 | < 50 | < 1900 | < 2000 |  | CCc1cc(Cl)cc(N2CC[C@](N)(CO)C2)c1Cn1cnc2c(N)ncnc21 [Example 108]
28 | < 50 | 1900 to 3000 | 2000 to 3000 |  | Nc1ncnc2c1ncn2Cc1c(I)c(F)c2c(c1N1CC[C@](N)(C(=O)NC3CC3)C1)OCC2 [Example 111]
29 | 50 to 100 | < 1900 | < 2000 |  | C[C@@H](NC(=O)[C@@]1(N)CCN(c2ccc(F)c(C(F)(F)F)c2Cn2cnc3c(N)ncnc32)C1)C1CCOCC1 [Example 124]
30 | 50 to 100 | < 1900 | < 2000 |  | Nc1ncnc2c1ncn2Cc1c(N2CC[C@](N)(C(=O)NC3CC34CCOCC4)C2)ccc(F)c1C(F)(F)F (stereo partly drawn) [Example 126]
